Laboratory results: PMC3411462, “Long-acting κ opioid antagonists nor-BNI, GNTI and JDTic: pharmacokinetics in mice and lipophilicity” (BMC Pharmacology, 2012)
Where two headings read alike, the source gives them in different places.

Assay: Brain and plasma concentrations in mice after intraperitoneal administration (LC-MS-MS), non-compartmental analysis
Assay type: in vivo
Details: for concentration at 2 h / half-life / concentration at 0.5 h / concentration at 1 h / AUC(0-inf) / concentration at 4 h / concentration at 24 h / CL/F / Vd/F: 10 mg/kg; for k el: read-out: Lambda_z (converted)
Experimental: Doses are reported by weight of the specified salt. […] Body mass was measured to ±0.1 g.
Mice were sacrificed by cervical dislocation, then decapitated for collection of brain and blood samples. Trunk blood was collected in 1.5 mL polypropylene micro-centrifuge tubes, shaken with a few crystals of EDTA and cooled in ice-water. Samples were centrifuged at 14,000 rpm (revolutions per minute) for 15 minutes at 3 °C, then stored in glass sample vials at −20 °C until analysis. Brains were removed and immersed for 30 seconds in 2-methylbutane over dry ice, then stored in polypropylene tubes at −20 °C until sample preparation. Sample tubes were thawed in ice-water, distilled water was added (2:1 by weight) and the brain homogenized with a probe sonicator for 3 minutes over ice-water (Fisher Sonic Dismembrator 300 at 35% power). The probe was rinsed with ethanol and distilled water between samples. Brain homogenate was stored in glass sample vials at −20 °C until analysis by LC-MS-MS.
Drug concentrations (ng mL^-1) refer to the free base, and were measured by liquid chromatography-tandem mass spectrometry (LC-MS-MS) as described previously. Briefly, samples were shaken with 3 volumes of methanol and centrifuged at 3000 g. Aliquots of the supernatants were diluted with 5 volumes of water containing an appropriate internal standard. Extracts from in vitro and in vivo experiments were analyzed by multiple reaction monitoring on an API3000 or API4000 LC-MS-MS system with electrospray ion source, controlled and analyzed using the Analyst software package (Applied Biosystems, Foster City, CA). Chromatography was conducted on a Sprite Armor C18 analytical column (20 × 2.1 mm, 10 μm particle size, Analytical Sales and Products, Pompton Plains, NJ) with a 0.5 μm PEEK guard filter. Compounds were eluted with a gradient from 2% to 95% acetonitrile in water, both containing 0.1% formic acid. Compounds were detected in positive ion mode, tuned to the mass transition with the largest intensity. Analyte concentrations were determined by comparison of analyte:internal standard peak area ratios to those of standards prepared in the appropriate matrices.
For calculation of mean concentrations, the earliest values below the MRC were substituted by MRC ÷ 2, as recommended elswhere. Pharmacokinetic parameters were calculated from mean concentrations using PKSolver, employing non-compartmental analysis for extravascular administration. Curves in figures were fitted using Origin 8.5 (OriginLab, Northampton, MA) using 2-compartment models. Confidence intervals and two-tailed p values (unpaired t test) were calculated using Graphpad Quickcalcs. One outlier was identified using Grubbs' test (p < 0.01) and excluded from the analysis; see Additional file 1.

[1] = male, Swiss-Webster, mouse, brain, ip, 10 mg/kg i.p., read-out: mean (brain)
[2] = male, Swiss-Webster, mouse, ip, brain NCA, 10 mg/kg i.p.
[3] = male, Swiss-Webster, mouse, ip, plasma NCA, 10 mg/kg i.p.
[4] = male, Swiss-Webster, mouse, plasma, intraperitoneal, read-out: Conc (plasma, NCA input)
[5] = male, Swiss-Webster, mouse, plasma, ip, 10 mg/kg i.p., read-out: mean (plasma)
[6] = male, Swiss-Webster, mouse, plasma, ip, 10 mg/kg i.p., individual mice, read-out: [drug],plasma (free base equivalent)

Q: For `CC(C)[C@@H](CN1CC[C@@](C)(c2cccc(O)c2)[C@@H](C)C1)NC(=O)[C@H]1Cc2ccc(O)cc2CN1` [JDTic, (3R)-7-Hydroxy-N-((1S)-1-{[(3R,4R)-4-(3-hydroxyphenyl)-3,4-dimethyl-1-piperidinyl]methyl}-2-methylpropyl)-1,2,3,4-tetrahydro-3-isoquinolinecarboxamide], which concentration at 2 h (male, Swiss-Webster, mouse, brain, intraperitoneal, read-out: Conc (brain, NCA input)) is on record?
A: 38.4 ng/mL

Q: What about the half-life (male, Swiss-Webster, mouse, brain, ip, 10 mg kg^-1 i.p., mice, read-out: Terminal half-life in brain (converted)) of the same compound?
A: ~216 h

Q: What about the concentration at 0.5 h [1] of the same compound?
A: 71.1 ng/g

Q: What about the concentration at 1 h [1] of the same compound?
A: 61.1 ng/g

Q: And the concentration at 2 h (male, Swiss-Webster, mouse, brain, ip, 10 mg/kg i.p., individual mice, read-out: [drug],brain (free base equivalent))?
A: 30 ng/g

Q: And the concentration at 2 h (male, Swiss-Webster, mouse, brain, ip, 10 mg/kg i.p., <MRC substituted by MRC/2, read-out: mean (brain))?
A: 38.4 ng/g

Q: What about the half-life (male, Swiss-Webster, mouse, brain, ip, brain NCA, 10 mg/kg i.p., read-out: t1/2 (converted)) of the same compound?
A: 220 h

Q: What about the AUC(0-inf) (male, Swiss-Webster, mouse, brain, ip, brain, 10 mg kg^-1 i.p., non-compartmental analysis, read-out: AUC 0–∞,brain) of the same compound?
A: 10300 ng·h/mL

Q: What about the Tmax (male, Swiss-Webster, mouse, in vivo, ip, ·2HCl salts, 10 mg kg^-1 i.p., mice) of the same compound?
A: 0.5 h

Q: And the AUC(0-t) [2]?
A: 4400 ng·h/mL

Q: And the Tmax [2]?
A: 0.5 h

Q: And the Cmax (male, Swiss-Webster, mouse, ip, brain NCA, 10 mg/kg i.p., read-out: Cmax)?
A: 71.1 ng/mL

Q: What about the k el [2] of the same compound?
A: 8.75e-07 s⁻¹

Q: And the AUC(0-t) [3]?
A: 866 ng·h/mL

Q: And the Tmax [3]?
A: 0.5 h

Q: And the k el [3]?
A: 3.75e-05 s⁻¹

Q: What about the MRT inf (male, Swiss-Webster, mouse, ip, plasma NCA, 10 mg/kg i.p., read-out: MRT 0-inf_obs) of the same compound?
A: 4.3 h

Q: And the Cmax (male, Swiss-Webster, mouse, ip, plasma, 10 mg kg^-1 i.p., mice, read-out: C max,p)?
A: 245 ng/mL

Q: What about the concentration at 0.5 h [4] of the same compound?
A: 245 ng/mL

Q: What about the concentration at 1 h [4] of the same compound?
A: 154 ng/mL

Q: And the concentration at 2 h [4]?
A: 56.9 ng/mL

Q: And the concentration at 4 h [4]?
A: 46.6 ng/mL

Q: What about the concentration at 24 h [4] of the same compound?
A: 3 ng/mL

Q: And the concentration at 0.5 h [5]?
A: 245 ng/mL

Q: What about the concentration at 1 h [5] of the same compound?
A: 154 ng/mL

Q: And the concentration at 2 h [6]?
A: 42.3 ng/mL

Q: And the concentration at 2 h [5]?
A: 57 ng/mL

Q: And the concentration at 4 h [5]?
A: 47 ng/mL

Q: And the concentration at 24 h [6]?
A: 5 ng/mL

Q: What about the concentration at 24 h (male, Swiss-Webster, mouse, plasma, ip, 10 mg/kg i.p., <MRC substituted by MRC/2, read-out: mean (plasma)) of the same compound?
A: 3 ng/mL

Q: And the AUC(0-inf) (male, Swiss-Webster, mouse, plasma, ip, plasma NCA, 10 mg/kg i.p., read-out: AUC 0-inf_obs)?
A: 888 ng·h/mL

Q: And the CL/F (male, Swiss-Webster, mouse, plasma, ip, plasma NCA, 10 mg/kg i.p., read-out: Cl/F_obs (converted))?
A: 188 mL/min/kg

Q: And the Vd/F (male, Swiss-Webster, mouse, plasma, ip, plasma NCA, 10 mg/kg i.p., read-out: Vz/F_obs)?
A: 83.3 L/kg

Q: What about the half-life (male, Swiss-Webster, mouse, plasma, ip, plasma NCA, 10 mg/kg i.p., read-out: t1/2 (converted)) of the same compound?
A: 5.13 h

Q: What about the AUC(0-inf) (male, Swiss-Webster, mouse, plasma, ip, plasma, 10 mg kg^-1 i.p., non-compartmental analysis, read-out: AUC 0–∞,p) of the same compound?
A: 888 ng·h/mL

Q: What about the CL/F (male, Swiss-Webster, mouse, plasma, ip, plasma, 10 mg kg^-1 i.p., non-compartmental analysis, read-out: CL/F (converted)) of the same compound?
A: 18.3 mL/min/kg

Q: What about the Vd/F (male, Swiss-Webster, mouse, plasma, ip, plasma, 10 mg kg^-1 i.p., non-compartmental analysis, read-out: V z /F) of the same compound?
A: 83 L/kg

Q: What about the “Decline of mean brain level” value (over 24 hours, 10 mg kg^-1 i.p.) of the same compound?
A: 56%

Q: What about the “AUMC 0-inf_obs” value (plasma NCA, 10 mg/kg i.p.) of the same compound?
A: 3814.94 ng/ml*h^2

Q: And the Tlag (plasma NCA, 10 mg/kg i.p.)?
A: 0 h

Q: And the “Maximal plasma concentration relative to those after nor-BNI and GNTI” value (same dose, 10 mg kg^-1 i.p.)?
A: less than 10%

Q: And the “C max,brain,u” value (unbound brain, 10 mg kg^-1 i.p., in vivo brain binding assumed at least 3-fold greater than homogenate)?
A: < 4 nM

Q: What about the “Decline of mean plasma concentration from peak” value (shortened to “Decline … from peak”) (within 1 hour, 10 mg kg^-1 i.p.) of the same compound?
A: 37%

Q: What about the “Decline … from peak” value (within 2 hours, 10 mg kg^-1 i.p.) of the same compound?
A: 77%

Q: And the “Decline … from peak” value (within 4 hours, 10 mg kg^-1 i.p.)?
A: at least 80%
